Key:
[1] = target: T1, Neutrophil elastase (Homo sapiens) (UniProt P08246)
T1 sequence (whole entry): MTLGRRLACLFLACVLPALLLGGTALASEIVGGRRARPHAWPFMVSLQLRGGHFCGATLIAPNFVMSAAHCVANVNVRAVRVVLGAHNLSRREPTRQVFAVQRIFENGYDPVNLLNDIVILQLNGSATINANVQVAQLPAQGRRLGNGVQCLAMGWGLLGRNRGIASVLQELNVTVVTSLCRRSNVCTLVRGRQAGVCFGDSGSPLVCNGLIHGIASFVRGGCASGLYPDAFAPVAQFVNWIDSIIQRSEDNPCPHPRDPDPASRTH
Description: Alkaline hydrolysis constant for the compound was determined against human leukocyte elastase (HLE)

Neutrophil elastase = target: T2, Neutrophil elastase (Homo sapiens, UniProt P08246); assay: Inhibitory activity against human leukocyte elastase (HLE) was determined
T2 sequence (P08246 whole entry): T1 sequence (whole entry)

[2] = target: T1, Neutrophil elastase (Homo sapiens); remark: listed apart in the source
Description: Rate constant for the compound was determined against human leukocyte elastase (HLE)

[3] = target: T1, Neutrophil elastase (Homo sapiens); remark: listed apart in the source
Description: Rate constant for the compound was determined (k2/ki) against human leukocyte elastase (HLE)

C[C@@H](O)[C@@H]1C(=O)N2S/C(=C/C(=O)OC(C)(C)C)S[C@@H]12
kOH [1]: 10.3 M⁻¹ s⁻¹ | Ki (Neutrophil elastase): > 100 µM

C[C@@H](O)[C@H]1C(=O)N2S/C(=C/C(=O)OC(C)(C)C)C[C@H]12
Ki (Neutrophil elastase): 3.2 µM

C[C@@H](O)[C@H]1C(=O)N2S/C(=C/C(=O)OC(C)(C)C)S[C@H]12
kOH [1]: 12 M⁻¹ s⁻¹ | Ki (Neutrophil elastase): 1.5 µM | k off [2]: 0.0014 s⁻¹ | k on [3]: 1000 M⁻¹ s⁻¹

C[C@@H](O)[C@H]1C(=O)N2S/C(=C\C(=O)OC(C)(C)C)S[C@H]12
kOH [1]: 3 M⁻¹ s⁻¹ | Ki (Neutrophil elastase): 12 µM | k off [2]: 0.002 s⁻¹ | k on [3]: 150 M⁻¹ s⁻¹

C[C@@H](O)[C@H]1C(=O)N2C/C(=C/C(=O)OC(C)(C)C)C[C@H]12
Ki (Neutrophil elastase): > 100 µM

C[C@@H](OC(=O)Cc1ccccc1)[C@H]1C(=O)N2S/C(=C/C(=O)OC(C)(C)C)S[C@H]12
kOH [1]: 0.04 M⁻¹ s⁻¹ | Ki (Neutrophil elastase): 0.4 µM | k off [2]: 0.0004 s⁻¹ | k on [3]: 970 M⁻¹ s⁻¹

C[C@@H](O)[C@H]1C(=O)N2C/C(=C/C(=O)OC(C)(C)C)S[C@H]12
Ki (Neutrophil elastase): 4 µM
